Laboratory results: article PMC5342526, “Identification of Bisindolylmaleimide IX as a potential agent to treat drug-resistant BCR-ABL positive leukemia” (Oncotarget, 2016)

Legend:
[1] = test system: HCT116 cells; assay: Wst-1 cell survival assay; conditions: HCT116, compared to other genotoxic drugs such as Itu
[2] = test system: MEFs; assay: Cell cycle analysis by FACS; type: cell-based, mouse; conditions: 24 hrs
Method: (§1) Cells were seeded on 35-mm dishes and cultured for 24 hrs, reaching 60–70% confluency. The cells were treated with different concentrations of Bisindolylmaleimide IX for 24 or 48 hrs, harvested by trypsinization, resuspended in 200 μl PBS, and fixed in 100% ethanol overnight at 4°C. The fixed cells were pelleted by centrifugation, resuspended in 800 μl PBS containing ribonuclease A (100 μg/ml) and incubated for 30 min at 37°C. Then 10 μl propidium iodide (PI, 4 mg/ml PBS) were added to the samples, which were assessed on a FACSCalibur flow cytometer using Cell Quest software (BD Bioscience).

[3] = test system: intravenously injected BCR-ABL positive BaF3 cells; assay: Lifespan of nude mice after intravenous cell injection; type: in vivo, mouse; conditions: 2 or 4 mg/kg every day
Method: (§2) For solid tumor models, the mice were injected with 4 mg / kg of Bisindolylmaleimide IX or solvent. The length (L) and width (W) of the tumor were measured by a digital caliper and expressed as tumor volume (0.5 L×W^2, mm^3). The body weight and the lifespan of the mice with intravenous injection of BaF3 cells were monitored every day. For B-Raf knockdown, lentivirus-mediated expressing shRNA against B-Raf was used.

[4] = test system: intravenously injected T315I BCR-ABL positive BaF3 cells; assay: as above; type: in vivo, mouse; conditions: 2 or 4 mg/kg every day
Method: as §2

[5] = molecular target: Jak2 (Homo sapiens, UniProt O60674); assay: Z'-LYTE in vitro kinase assay; type: biochemical; conditions: mean ±SEM
[6] = test system: Vector BaF3 cells; assay: Wst-1 cell survival assay; type: cell-based, murine; conditions: Mus musculus, Vector BaF3, 24 hrs
Excerpt: The reference wavelength was 630 nm.

[7] = test system: BCR-ABL BaF3 cells; conditions: BCR-ABL BaF3, 24 hrs, compared among bisindolylmaleimide derivatives
[8] = molecular target: T1, IKKβ (Homo sapiens, UniProt O14920); assay: Z'-LYTE in vitro kinase assay; type: biochemical; conditions: mean ±SEM
T1 construct: made in house; host or cells: Escherichia coli BL21-Codon Plus (DE3)
Method: (§3) The recombinant Auror, B-Raf, IKKβ, SYK, BCR-Abl, MEK1 and Erk1 proteins were expressed in Escherichia coli strain BL21-Codon Plus (DE3), purified by Ni-NTA Agarose (QIAGEN). The kinase assays were carried out with the Z'-LYTETM Kinase Assay kit using Ser/Thr3 Peptide substrate (Invitrogen). The reactions were carried out according to the Z-LYTE protocol and the results were read on an EnVision plate reader. All reactions were carried out in triplicate. Data were expressed as mean ±SEM.

[9] = molecular target: T2, Aurora A (Homo sapiens, UniProt O14965); assay: Z'-LYTE in vitro kinase assay; type: biochemical; conditions: mean ±SEM
T2 construct: made in house; host or cells: Escherichia coli BL21-Codon Plus (DE3)
Method: as §3

[10] = molecular target: T3, B-Raf (Homo sapiens, UniProt P15056); assay: Z'-LYTE in vitro kinase assay; type: biochemical; conditions: mean ±SEM
T3 construct: made in house; host or cells: Escherichia coli BL21-Codon Plus (DE3)
Method: as §3

[11] = molecular target: T4, ERK1 (Homo sapiens, UniProt P27361); assay: Z'-LYTE in vitro kinase assay; type: biochemical
T4 construct: made in house; host or cells: Escherichia coli BL21-Codon Plus (DE3)
Method: as §3

[12] = molecular target: T5, MEK1 (Homo sapiens, UniProt Q02750); assay: Z'-LYTE in vitro kinase assay; type: biochemical
T5 construct: made in house; host or cells: Escherichia coli BL21-Codon Plus (DE3)
Method: as §3

[13] = molecular target: BCR-ABL (Homo sapiens, UniProt P00519); assay: Z'-LYTE in vitro kinase assay; type: biochemical
Method: as §3

[14] = molecular target: T6, SYK (Homo sapiens, UniProt P43405); assay: Z'-LYTE in vitro kinase assay; type: biochemical
T6 construct: made in house; host or cells: Escherichia coli BL21-Codon Plus (DE3)
Method: as §3

[15] = test system: DNA topoisomerase; assay: DNA relaxation assay with extracts of treated MEFs; type: cell-based, mouse; conditions: supercoiled pBluescript plasmid DNA as template
Method: Bisindolylmaleimide IX and other derivatives were added to MEF cultures and 24 hrs later, the cells were washed with PBS and harvested in TNE buffer. The control and Bisindolylmaleimide IX-treated cell extracts were directly used to test the topoisomerase activity using a kit from Topogen (Port Orange, USA) following the manufacturer's protocol, or pBluescript DNA as a template. The in vitro incubation lasted 30 min at room temperature. A 2% agarose gel was run to analyze DNA unwinding (Topogen) or 0.8% gel for pBluescript DNA.

[16] = test system: BCR-ABL MEF cells; assay: Wst-1 cell survival assay; conditions: Mus musculus, 24 h, read-out: IC50, cell survival
Method: (§4) We then evaluated the cytotoxic effect of Bisindolylmaleimide IX in MEFs and HCT116 cells. Different doses of Bisindolylmaleimide IX were applied to the cell cultures and cell survival rates and IC50 were determined with Wst-1 assay.
(§5) To measure cell survival rates after Bisindolylmaleimide IX treatment, cells were plated at 1×10^4 in 96 well plates and cultured for overnight, which were then treated with Bisindolylmaleimide IX for 48 hrs. Cell proliferation reagent WST-1 (Roche) was added to each well and was further incubated for 4 hrs at 37°C. The absorbance was measured against a control using microplate reader at 440 nm. The reference wavelength was 630 nm.

[17] = test system: primary MEFs; assay: Wst-1 cell survival assay
Method: as §4, §5

[18] = test system: BCR-ABL BaF3 cells; assay: cells; conditions: Mus musculus, BaF3, 24 h, read-out: IC50, cell survival
[19] = test system: tumors derived from HCT116; assay: HCT116 carcinoma xenograft in nude mice; type: in vivo, mouse; conditions: 10 mg/kg for 7 days
Method: Male BALB/cASlac-nude mice (4-week-old) were purchased from Shanghai Slac Laboratory Animal C. LTD. The mice were kept in the SPF mouse facility for 1 week before being inoculated with HCT116 cells. HCT116 cells were harvested by trypsinization, counted and resuspended in PBS at the concentration of 5×10^7/ml. We injected subcutaneously 3×10^6 cells to BALB/cASlac nude mice's back. After 2 weeks, the mice were divided into 3 groups (6 mice per group) and were treated with 5-Iodotubercidin (Itu), Bisindolylmaleimide IX or solvent (PBS). The mice were weighed and the size of tumor measured. The length (L) and width (W) of the tumor were measured with a digital caliper and expressed as tumor volume (0.5L×W^2, mm^3).

[20] = test system: p53 in primary MEFs; assay: p53 protein level by western blot (screen)
Method: Cells were lysed in TNEN buffer (50 mM Tris, 150 mM NaCl, 5 mM EDTA, 0.5% NP-40, and 0.1% Triton X-100) supplemented with 1 mM NaF, Na2VO3, 1 mM PMSF, and 1 μg/ml of aprotonin, leupeptin, and pepstatin A. Protein concentrations were determined using a Bio-Rad assay. Proteins were resolved by SDS-PAGE and transferred to polyvinylidene difluoride membranes (Millipore).

[21] = test system: BCR-ABL in BaF3 cells; assay: BCR-ABL activation in cells, anti-phospho-Tyr western blot; conditions: 4 hrs
Method: BaF3 cells infected with empty retrovirus or retrovirus expressing BCR-ABL were treated with different doses of Bisindolylmaleimide IX for 4 hrs. Activation and expression of BCR-ABL were determined by western blot. Activation of BCR-ABL was determined by anti-phospho-Tyr antibodies.
Cells were lysed in TNEN buffer (50 mM Tris, 150 mM NaCl, 5 mM EDTA, 0.5% NP-40, and 0.1% Triton X-100) supplemented with 1 mM NaF, Na2VO3, 1 mM PMSF, and 1 μg/ml of aprotonin, leupeptin, and pepstatin A. Protein concentrations were determined using a Bio-Rad assay. Proteins were resolved by SDS-PAGE and transferred to polyvinylidene difluoride membranes (Millipore). […] Antibodies against p-Tyr were from Merck Millipore Corporation.

[22] = test system: Vector MEF cells; assay: Wst-1 cell survival assay; conditions: Mus musculus, 24 h, read-out: IC50, cell survival
Method: as §4, §5

[23] = test system: HCT116 cells; assay: Cell cycle analysis by FACS; type: cell-based, human; conditions: HCT116, 24 hrs
Method: as §1

BCR-ABL, sequence (P00519 27-1130): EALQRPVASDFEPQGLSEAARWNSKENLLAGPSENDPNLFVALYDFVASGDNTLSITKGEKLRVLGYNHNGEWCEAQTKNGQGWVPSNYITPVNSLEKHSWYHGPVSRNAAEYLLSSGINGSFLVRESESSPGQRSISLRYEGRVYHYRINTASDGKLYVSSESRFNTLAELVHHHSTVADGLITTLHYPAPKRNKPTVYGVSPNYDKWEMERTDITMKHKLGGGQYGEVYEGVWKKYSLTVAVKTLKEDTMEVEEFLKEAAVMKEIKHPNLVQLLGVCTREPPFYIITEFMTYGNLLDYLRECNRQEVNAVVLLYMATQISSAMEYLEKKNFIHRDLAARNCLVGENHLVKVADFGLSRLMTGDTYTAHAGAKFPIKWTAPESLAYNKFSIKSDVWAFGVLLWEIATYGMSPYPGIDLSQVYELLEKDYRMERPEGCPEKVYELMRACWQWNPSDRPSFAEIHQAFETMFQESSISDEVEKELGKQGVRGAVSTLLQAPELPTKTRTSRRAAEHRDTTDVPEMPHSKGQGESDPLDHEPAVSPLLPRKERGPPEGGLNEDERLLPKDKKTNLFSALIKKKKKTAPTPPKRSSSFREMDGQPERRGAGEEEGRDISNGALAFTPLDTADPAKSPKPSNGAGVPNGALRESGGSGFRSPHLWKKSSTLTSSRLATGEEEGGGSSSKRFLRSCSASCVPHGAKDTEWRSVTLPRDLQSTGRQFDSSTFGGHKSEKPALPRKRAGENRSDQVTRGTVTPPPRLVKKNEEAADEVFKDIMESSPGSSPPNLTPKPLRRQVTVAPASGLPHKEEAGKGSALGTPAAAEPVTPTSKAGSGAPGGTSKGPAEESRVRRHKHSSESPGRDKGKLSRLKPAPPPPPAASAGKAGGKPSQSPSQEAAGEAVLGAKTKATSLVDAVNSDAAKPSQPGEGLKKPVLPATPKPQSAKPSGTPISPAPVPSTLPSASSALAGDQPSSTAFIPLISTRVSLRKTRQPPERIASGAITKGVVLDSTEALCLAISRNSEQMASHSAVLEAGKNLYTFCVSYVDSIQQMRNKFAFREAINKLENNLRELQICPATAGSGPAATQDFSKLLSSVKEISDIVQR
BCR-ABL, sequence (P11274 1-927 partner): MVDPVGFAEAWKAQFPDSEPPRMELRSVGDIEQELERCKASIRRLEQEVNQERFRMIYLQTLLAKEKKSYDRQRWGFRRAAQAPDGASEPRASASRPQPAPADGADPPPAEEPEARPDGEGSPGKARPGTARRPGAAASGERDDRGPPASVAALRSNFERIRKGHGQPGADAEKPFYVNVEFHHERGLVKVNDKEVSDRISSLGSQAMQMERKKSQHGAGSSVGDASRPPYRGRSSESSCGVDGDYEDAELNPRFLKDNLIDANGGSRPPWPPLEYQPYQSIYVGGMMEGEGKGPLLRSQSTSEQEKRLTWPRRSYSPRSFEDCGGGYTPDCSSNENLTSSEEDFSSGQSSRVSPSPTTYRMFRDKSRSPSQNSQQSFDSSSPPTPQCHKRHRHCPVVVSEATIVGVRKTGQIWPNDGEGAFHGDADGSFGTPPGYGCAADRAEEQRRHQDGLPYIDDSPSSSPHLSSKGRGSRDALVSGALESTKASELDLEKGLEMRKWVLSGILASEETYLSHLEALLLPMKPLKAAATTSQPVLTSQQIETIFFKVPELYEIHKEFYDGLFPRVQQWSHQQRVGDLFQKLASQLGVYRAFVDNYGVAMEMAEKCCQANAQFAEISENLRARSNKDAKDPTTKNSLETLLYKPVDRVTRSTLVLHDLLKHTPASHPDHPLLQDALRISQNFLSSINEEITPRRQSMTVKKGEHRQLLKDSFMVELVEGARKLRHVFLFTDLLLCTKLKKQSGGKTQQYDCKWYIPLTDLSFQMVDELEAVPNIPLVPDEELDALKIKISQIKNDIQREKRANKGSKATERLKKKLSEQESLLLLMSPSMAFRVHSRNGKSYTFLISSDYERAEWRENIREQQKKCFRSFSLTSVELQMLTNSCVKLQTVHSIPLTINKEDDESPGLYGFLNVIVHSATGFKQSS
T2 sequence (O14965 whole entry): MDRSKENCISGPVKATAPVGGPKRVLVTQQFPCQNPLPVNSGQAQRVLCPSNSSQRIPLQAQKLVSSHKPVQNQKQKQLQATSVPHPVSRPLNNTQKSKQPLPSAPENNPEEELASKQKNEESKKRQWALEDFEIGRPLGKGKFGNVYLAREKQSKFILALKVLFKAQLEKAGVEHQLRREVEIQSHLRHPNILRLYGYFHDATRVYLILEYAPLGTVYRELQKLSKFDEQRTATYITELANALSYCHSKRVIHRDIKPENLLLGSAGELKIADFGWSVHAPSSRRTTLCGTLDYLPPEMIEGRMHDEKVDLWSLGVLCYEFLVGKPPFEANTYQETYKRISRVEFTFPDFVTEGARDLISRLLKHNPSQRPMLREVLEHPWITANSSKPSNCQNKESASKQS
T1 sequence (O14920 whole entry, species assumed): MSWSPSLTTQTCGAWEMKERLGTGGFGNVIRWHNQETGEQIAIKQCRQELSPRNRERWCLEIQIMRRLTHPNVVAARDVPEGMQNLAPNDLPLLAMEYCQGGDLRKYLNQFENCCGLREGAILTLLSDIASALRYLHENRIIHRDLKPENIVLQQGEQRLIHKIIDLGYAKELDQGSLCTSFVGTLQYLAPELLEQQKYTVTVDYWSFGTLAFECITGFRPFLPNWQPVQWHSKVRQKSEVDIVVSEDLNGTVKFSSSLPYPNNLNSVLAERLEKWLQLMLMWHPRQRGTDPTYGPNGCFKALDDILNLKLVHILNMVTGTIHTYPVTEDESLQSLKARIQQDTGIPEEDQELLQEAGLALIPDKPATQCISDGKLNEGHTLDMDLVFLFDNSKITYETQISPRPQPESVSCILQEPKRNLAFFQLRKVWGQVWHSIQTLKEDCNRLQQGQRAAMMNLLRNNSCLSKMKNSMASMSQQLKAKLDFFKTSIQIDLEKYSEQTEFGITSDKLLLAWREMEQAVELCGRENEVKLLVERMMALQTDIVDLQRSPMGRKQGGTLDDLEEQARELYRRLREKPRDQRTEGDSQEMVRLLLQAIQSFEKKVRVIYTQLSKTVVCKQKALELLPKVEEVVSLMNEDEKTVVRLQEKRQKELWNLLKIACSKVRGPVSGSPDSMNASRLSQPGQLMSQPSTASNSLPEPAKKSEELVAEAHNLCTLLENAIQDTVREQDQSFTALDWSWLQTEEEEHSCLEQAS
T5 sequence (Q02750 whole entry, species assumed): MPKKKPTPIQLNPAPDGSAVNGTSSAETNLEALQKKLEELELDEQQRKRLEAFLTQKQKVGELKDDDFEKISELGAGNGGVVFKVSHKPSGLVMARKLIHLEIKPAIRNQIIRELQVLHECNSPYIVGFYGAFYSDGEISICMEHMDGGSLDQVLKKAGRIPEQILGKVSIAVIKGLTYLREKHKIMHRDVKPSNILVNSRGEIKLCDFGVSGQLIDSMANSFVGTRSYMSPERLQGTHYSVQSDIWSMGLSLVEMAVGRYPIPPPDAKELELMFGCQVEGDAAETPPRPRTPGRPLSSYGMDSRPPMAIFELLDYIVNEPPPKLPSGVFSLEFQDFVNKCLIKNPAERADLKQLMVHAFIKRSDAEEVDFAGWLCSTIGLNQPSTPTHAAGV
Jak2, sequence (O60674 whole entry, species assumed): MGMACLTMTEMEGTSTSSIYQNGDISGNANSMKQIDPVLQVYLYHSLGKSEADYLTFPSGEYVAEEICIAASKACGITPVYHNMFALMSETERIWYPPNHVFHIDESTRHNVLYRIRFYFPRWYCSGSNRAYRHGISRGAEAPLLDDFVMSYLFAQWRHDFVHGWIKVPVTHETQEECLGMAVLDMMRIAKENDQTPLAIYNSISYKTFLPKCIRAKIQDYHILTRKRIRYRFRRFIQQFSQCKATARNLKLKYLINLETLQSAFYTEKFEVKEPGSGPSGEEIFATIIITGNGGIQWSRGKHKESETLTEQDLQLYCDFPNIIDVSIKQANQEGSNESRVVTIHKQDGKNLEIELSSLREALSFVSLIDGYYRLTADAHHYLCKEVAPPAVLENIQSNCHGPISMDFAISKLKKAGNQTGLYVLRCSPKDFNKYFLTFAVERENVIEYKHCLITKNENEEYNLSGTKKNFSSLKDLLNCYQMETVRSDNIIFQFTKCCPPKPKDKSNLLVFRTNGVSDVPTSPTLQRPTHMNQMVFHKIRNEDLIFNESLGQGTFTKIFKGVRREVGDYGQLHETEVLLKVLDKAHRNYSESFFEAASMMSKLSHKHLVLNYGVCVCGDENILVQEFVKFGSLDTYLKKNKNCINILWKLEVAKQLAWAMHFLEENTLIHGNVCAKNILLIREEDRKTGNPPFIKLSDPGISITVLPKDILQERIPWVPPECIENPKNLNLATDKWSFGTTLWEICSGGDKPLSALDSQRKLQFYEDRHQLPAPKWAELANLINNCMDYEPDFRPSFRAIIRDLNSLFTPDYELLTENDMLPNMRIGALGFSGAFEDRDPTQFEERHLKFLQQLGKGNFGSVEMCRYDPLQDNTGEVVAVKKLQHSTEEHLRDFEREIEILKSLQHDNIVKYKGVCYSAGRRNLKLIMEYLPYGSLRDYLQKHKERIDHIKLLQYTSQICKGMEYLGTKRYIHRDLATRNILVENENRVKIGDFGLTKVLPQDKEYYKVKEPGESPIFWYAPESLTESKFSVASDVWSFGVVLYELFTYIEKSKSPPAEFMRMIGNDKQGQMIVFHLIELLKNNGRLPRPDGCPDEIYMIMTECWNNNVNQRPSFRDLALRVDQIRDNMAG

CS(=O)(=O)O.Cn1cc(C2=C(c3cn(CCCSC(=N)N)c4ccccc34)C(=O)NC2=O)c2ccccc21 [Bisindolylmaleimide IX, 3-[1-[3-(Amidinothio)propyl]-3-indolyl]-4-(1-methyl-3-indolyl)-1H-pyrrole-2,5-dione methanesulfonate]
cytotoxicity (in words) [1]: modest cytotoxicity | cell cycle profile [2]: increase in G2/M phase cells and a decrease in S phase cells | lifespan of the mice [3]: extend the lifespan | lifespan of the mice [4]: extend the lifespan | IC50 [5]: 9.68 ± 0.79 µM | IC50 [6]: > 8 µM | cytotoxic effect (in words) [7]: most potent one | IC50 [8]: 0.48 ± 0.005 µM | IC50 [9]: > 45 µM | IC50 [10]: 1.14 ± 0.11 µM | IC50 [11]: > 45 µM | IC50 [12]: > 45 µM | concentration needed to inhibit BCR-ABL in in vitro kinase assays [13]: 45 µM | IC50 ([13]; in vitro kinase assay): > 45 µM | IC50 [14]: > 45 µM | DNA relaxation (topoisomerase) activity of extract from treated cells [15]: partially lost this activity | IC50 [16]: 3.46 µM | cytotoxicity (in words) ([17]; MEFs, compared to other genotoxic drugs such as Itu): modest cytotoxicity | IC50 ([17]; Mus musculus, 24 h, read-out: IC50, cell survival): 3.83 µM | IC50 [18]: 3.26 µM | body weights of the mice [19]: not affected | tumor size [19]: did not go down | p53 protein up-regulation [20]: up-regulate p53 at the protein levels | inhibitory effect on BCR-ABL activity in vivo (in cells) [21]: negligible inhibitory effect | IC50 [22]: 7.37 µM | cell cycle profile [23]: increase in G2/M phase cells and a decrease in S phase cells
